According to patent US6716833B2, “Acetylenic α-amino acid-based sulfonamide hydroxamic acid tace inhibitors” (priority 1999, dated 2004):

These compounds were tested against TNF-α converting enzyme (TACE) (Homo sapiens, UniProt P78536) (assay: TACE inhibition (fluorescent peptidyl substrate)). Conditions: 1 uM; Table 15.
Format: biochemical

Chain of TNF-α converting enzyme (TACE) (P78536 215-824, species assumed): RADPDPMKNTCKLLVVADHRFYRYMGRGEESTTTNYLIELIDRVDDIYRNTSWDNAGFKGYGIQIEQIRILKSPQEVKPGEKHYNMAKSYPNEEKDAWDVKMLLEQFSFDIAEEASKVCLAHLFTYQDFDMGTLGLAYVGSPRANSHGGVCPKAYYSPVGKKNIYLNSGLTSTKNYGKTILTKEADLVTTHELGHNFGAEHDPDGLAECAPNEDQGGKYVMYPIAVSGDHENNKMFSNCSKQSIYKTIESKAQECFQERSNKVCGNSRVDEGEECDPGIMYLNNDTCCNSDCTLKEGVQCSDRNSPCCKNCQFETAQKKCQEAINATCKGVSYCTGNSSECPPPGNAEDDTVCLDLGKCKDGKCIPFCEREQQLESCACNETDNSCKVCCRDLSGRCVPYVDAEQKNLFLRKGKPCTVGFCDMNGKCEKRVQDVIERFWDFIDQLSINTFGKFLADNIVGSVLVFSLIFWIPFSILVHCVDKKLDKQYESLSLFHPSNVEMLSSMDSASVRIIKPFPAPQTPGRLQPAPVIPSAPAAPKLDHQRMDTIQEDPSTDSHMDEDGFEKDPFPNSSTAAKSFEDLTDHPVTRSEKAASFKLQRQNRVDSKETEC

Row | % Inhibition at 1 uM (In Vitro Inhibition of TACE) | Compound
1 | 48.5% | CC#CCOc1ccc(S(=O)(=O)NCCC(=O)NO)cc1 [Example 69]
2 | 38.2% | CC#CCOc1ccc(S(=O)(=O)NC(Cc2ccccc2)C(=O)NO)cc1 (centres unmarked) [Example 94]
3 | 37.5% | CC#CCOc1ccc(S(=O)(=O)NC(CCC(=O)O)C(=O)NO)cc1 (centres unmarked) [Example 86]
4 | 30.2% | CC#CCOc1ccc(S(=O)(=O)NC(Cc2c[nH]c3ccccc23)C(=O)NO)cc1 (centres unmarked) [Example 101]
5 | 46.2% | CC#CCOc1ccc(S(=O)(=O)NC(CC(=O)O)C(=O)NO)cc1 (centres unmarked) [Example 67]
6 | 56.8% | CC#CCOc1ccc(S(=O)(=O)N[C@H](C(=O)NO)[C@@H](C)CC)cc1 [Example 89]
7 | 15.4% | CC#CCOc1ccc(S(=O)(=O)NC(C(=O)NO)C(C)O)cc1 (centres unmarked) [Example 100]

Same assay, conditions: IC 50 nM (In Vitro Inhibition of TACE), Table 15

Row | IC50 | Compound
8 | 7.8 ± 0.4 nM | CC#CCOc1ccc(S(=O)(=O)N[C@H](Cc2ccc(O)cc2)C(=O)NO)cc1 [Example 84]
9 | 387 nM | CC#CCOc1ccc(S(=O)(=O)N[C@H](CC(N)=O)C(=O)NO)cc1 [Example 75]
10 | 283 ± 42 nM | CC#CCOc1ccc(S(=O)(=O)N[C@@H](COCc2ccccc2)C(=O)NO)cc1 [Example 97]
11 | 17.6 nM | CC#CCOc1ccc(S(=O)(=O)N[C@@H](C(=O)NO)[C@H](C)OCc2ccccc2)cc1 [Example 323, (2R,3S)-3-(Benzyloxy)-2-({[4-(but-2-ynyloxy)phenyl]sulfonyl}amino)-N-hydroxybutanamide]
12 | 3.73 nM | CC#CCOc1ccc(S(=O)(=O)N[C@H](CCCNC(=O)c2c(C)noc2C)C(=O)NO)cc1 [Example 338, N-[(4R)-4-({[4-(But-2-ynyloxy)phenyl]sulfonyl)amino)-5-(hydroxyamino)-5-oxopentyl]-3,5-dimethylisoxazole-4-carboxamide]
13 | 3.54 nM | CC#CCOc1ccc(S(=O)(=O)N[C@H](CCCNC(=O)c2ccc(OC)cc2)C(=O)NO)cc1 [Example 343, N-[(4R)-4-({[4-(But-2-ynyloxy)phenyl]sulfonyl}amino)-5-(hydroxyamino)-5-oxopentyl]-4-methoxybenzamide]
14 | 6.5 nM | CC#CCOc1ccc(S(=O)(=O)N[C@H](CCCNC(=O)C2CCCCC2)C(=O)NO)cc1 [Example 335, N-[(4R)-4-({[4-(But-2-ynyloxy)phenyl]sulfonyl}amino)-5-(hydroxyamino)-5-oxopentyl]cyclohexanecarboxamide]
15 | 9.41 nM | CC#CCOc1ccc(S(=O)(=O)N[C@H](CCCCNC(=O)c2ccc3[nH]cnc3c2)C(=O)NO)cc1 [Example 349, N-[(5R)-5-({[4-(But-2-ynyloxy)phenyl]sulfunyl}amino)-6-(hydroxyamino)-6-oxohexyl]-1H-benzimidazole-5-carboxamide]
16 | 29.5 nM | CC#CCOc1ccc(S(=O)(=O)N[C@H](CCCCN)C(=O)NO)cc1 [Example 308, (2R)-6-Amino-2-({[4-(but-2-ynyloxy)phenyl]sulfonyl}amino)-N-hydroxyhexanamide]
17 | 377 nM | CC#CCOc1ccc(S(=O)(=O)N[C@H](CCCNC(=O)OCCCCCCCC)C(=O)NO)cc1 [Example 371, Octyl(4R)-4-({[4-(but-2-ynyloxy)phenyl]sulfonyl}amino)-5-(hydroxyamino)-5-oxopentylcarbamate]
18 | 10.9 nM | CC#CCOc1ccc(S(=O)(=O)N[C@H](CCCNC(=N)NS(=O)(=O)c2ccc(C)cc2)C(=O)NO)cc1 [Example 297, (2R)-2-({[4-(2-Butynyloxy)phenyl]sulfonyl}amino)-N-hydroxy-5-[(imino{[(4-methylphenyl)sulfonyl]amino}methyl)amino]pentanamide]
19 | 546 nM | CC#CCOc1ccc(S(=O)(=O)N[C@@H](CCCC)C(=O)NO)cc1 [Example 93]
20 | 25 nM | CC#CCOc1ccc(S(=O)(=O)N[C@H](CCCN)C(=O)NO)cc1 [Example 314, (2R)-5-Amino-2-({[4-(but-2-ynyloxy)phenyl]sulfonyl}amino)-N-hydroxypentanamide]
21 | 6.67 nM | CC#CCOc1ccc(S(=O)(=O)N[C@H](CCCNC(=O)c2ccncc2)C(=O)NO)cc1 [Example 340, N-[(4R)-4-({[4-(But-2-ynyloxy)phenyl]sulfonyl}amino)-5-(hydroxyamino)-5-oxopentyl]isonicotinamide]
22 | 6.88 nM | CC#CCOc1ccc(S(=O)(=O)N[C@H](CCCNC(=O)c2ccc3[nH]cnc3c2)C(=O)NO)cc1 [Example 329, N-[(4R)-4-({[4-(But-2-ynyloxy)phenyl]sulfonyl}amino)-5-(hydroxyamino)-5-oxopentyl]-1H-benzimidazole-5-carboxamide]
23 | 885 nM | CC#CCOc1ccc(S(=O)(=O)N[C@@H](CC(=O)OC2CCCCC2)C(=O)NO)cc1 [Example 68]
24 | 4.97 nM | CC#CCOc1ccc(S(=O)(=O)N[C@H](CCCCNC(=O)c2ccccc2OC)C(=O)NO)cc1 [Example 360, N-[(5R)-5-({[4-(But-2-ynyloxy)phenyl]sulfonyl}amino)-6-(hydroxyamino)-6-oxohexyl]-2-methoxybenzamide]
25 | 4.7 nM | CC#CCOc1ccc(S(=O)(=O)N[C@H](CCCC)C(=O)NO)cc1 [Example 312, (2R)-2-({[4-(But-2-ynyloxy)phenyl]sulfonyl}amino)-N-hydroxyhexanamide]

Row | IC50 | Compound
26 | 15.7 nM | CC#CCOc1ccc(S(=O)(=O)N[C@H](Cc2ccc3ccccc3c2)C(=O)NO)cc1 [Example 311, (2R)-2-({[4-(But-2-ynyloxy)phenyl]sulfonyl}amino)-N-hydroxy-3-(2-naphthyl)propanamide]
27 | 24.6 nM | CC#CCOc1ccc(S(=O)(=O)N[C@H](CSCc2ccc(C)cc2)C(=O)NO)cc1 [Example 301, (2S)-2-({[4-(But-2-ynyloxy)phenyl]sulfonyl}amino)-N-hydroxy-3-[(4-methylbenzyl)thio]propanamide]
28 | 10.4 nM | CC#CCOc1ccc(S(=O)(=O)N[C@H](CSC(C)(C)C)C(=O)NO)cc1 [Example 299, (2S)-3-(tert-Butylthio)-2-({[4-(but-2-ynyloxy)phenyl]sulfonyl}amino)-N-hydroxypropanamide]
29 | 12.4 nM | CC#CCOc1ccc(S(=O)(=O)N[C@H](CCCCNC(=O)Cc2ccc(Cl)c(Cl)c2)C(=O)NO)cc1 [Example 355, (2R)-2-({[4-(But-2-ynyloxy)phenyl]sulfonyl}amino)-6-{[2-(3,4-dichlorophenyl)acetyl]amino}-N-hydroxyhexanamide]
30 | 27.4 nM | CC#CCOc1ccc(S(=O)(=O)N[C@H](CCC(N)=O)C(=O)NO)cc1 [Example 303, (2R)-2-({[4-(But-2-ynyloxy)phenyl]sulfonyl}amino)-N-hydroxypentanediamide]
31 | 3.15 nM | CC#CCOc1ccc(S(=O)(=O)N[C@H](CCCNC(=O)c2ccsc2)C(=O)NO)cc1 [Example 347, N-[(4R)-4-({[4-(But-2-ynyloxy)phenyl]sulfonyl}amino)-5-(hydroxyamino)-5-oxopentyl]thiophene-3-carboxamide]
32 | 4.21 nM | CC#CCOc1ccc(S(=O)(=O)N[C@H](CCCNC(=O)c2sccc2Cl)C(=O)NO)cc1 [Example 333, N-[(4R)-4-({[4-(But-2-ynyloxy)phenyl]sulfonyl}amino)-5-(hydroxyamino)-5-oxopentyl]-3-chlorothiophene-2-carboxamide]
33 | 550 nM | CC#CCOc1ccc(S(=O)(=O)N[C@H](C(=O)NO)C2CCCCC2)cc1 [Example 72]
34 | 22.8 nM | CC#CCOc1ccc(S(=O)(=O)N[C@H](CCCNC(=O)CNCc2ccccc2)C(=O)NO)cc1 [Example 378, (2R)-5-{[2-(Benzylamino)acetyl]amino}-2-({[4-(but-2-ynyloxy)phenyl]sulfonyl}amino)-N-hydroxypentanamide]
35 | 5.89 nM | CC#CCOc1ccc(S(=O)(=O)N[C@H](CCCCNC(=O)C2CCCCC2)C(=O)NO)cc1 [Example 354, N-[(5R)-5-({[4-(But-2-ynyloxy)phenyl]sulfonyl}amino)-6-(hydroxyamino)-6-oxohexyl]cyclohexanecarboxamide]
36 | 106 nM | CC#CCOc1ccc(S(=O)(=O)N[C@H](CCCCNC(=O)/C=C/c2ccccc2)C(=O)NO)cc1 [Example 366, (E)-N-[(5R)-5-({[4-(But-2-ynyloxy)phenyl]sulfonyl}amino)-6-(hydroxyamino)-6-oxohexyl]-3-phenylprop-2-enamide]
37 | 29.4 nM | CC#CCOc1ccc(S(=O)(=O)N2C[C@@H](O)C[C@@H]2C(=O)NO)cc1 [Example 307, (2R,4S)-1-{[4-(But-2-ynyloxy)phenyl]sulfonyl}-N,4-dihydroxypyrrolidine-2-carboxamide]
38 | 14.1 nM | CC#CCOc1ccc(S(=O)(=O)N[C@H](CCCCNC(=O)c2c(C)noc2C)C(=O)NO)cc1 [Example 357, N-[(5R)-5-({[4-(But-2-ynyloxy)phenyl]sulfonyl}amino)-6-(hydroxyamino)-6-oxohexyl]-3,5-dimethylisoxazole-4-carboxamide]
39 | 27.9 nM | CC#CCOc1ccc(S(=O)(=O)N[C@H](Cc2cccc3ccccc23)C(=O)NO)cc1 [Example 310, (2R)-2-({[4-(But-2-ynyloxy)phenyl]sulfonyl}amino)-N-hydroxy-3-(1-naphthyl)propanamide]
40 | 14.7 nM | CC#CCOc1ccc(S(=O)(=O)N2CSC[C@@H]2C(=O)NO)cc1 [Example 324, (4S)-3-{[4-(But-2-ynyloxy)phenyl]sulfonyl}-N-hydroxy-1,3-thiazolidine-4-carboxamide]
41 | 4.7 nM | CC#CCOc1ccc(S(=O)(=O)N[C@H](CCCNC(=O)c2ccc(Cl)cc2)C(=O)NO)cc1 [Example 334, N-[(4R)-4-({[4-(But-2-ynyloxy)phenyl]sulfonyl}amino)-5-(hydroxyamino)-5-oxopentyl]-4-chlorobenzamide]
42 | 462 ± 58 nM | CC#CCOc1ccc(S(=O)(=O)N[C@@H](CC(C)C)C(=O)NO)cc1 [Example 90]

Same assay, conditions: read-out: IC 50 nM (In Vitro Inhibition of TACE); Table 15

Row | Compound | IC50
43 | CC#CCOc1ccc(S(=O)(=O)N[C@H](CCCNC(=O)c2cc(C)oc2C)C(=O)NO)cc1 [Example 337, N-[(4R)-4-({[4-(But-2-ynyloxy)phenyl]sulfonyl}amino)-5-(hydroxyamino)-5-oxopentyl]-2,5-dimethyl-3-furamide] | 4.2 nM
44 | (2R)-2-({[4-(But-2-ynyloxy)phenyl]sulfonyl}amino)-5-{[2-(3,4-dichlorophenyl)acetyl]amino}-N-hydroxypentanamide [Example 336] | 6.11 nM
